Consider 23 compounds from ChEMBL document CHEMBL1132943, “Synthesis of B-ring homologated estradiol analogues that modulate tubulin polymerization and microtubule stability” (J Med Chem, 2000).

Usually pEC50 stands for the negative decadic logarithm of the EC50, by convention in mol/L. As a reminder, the pIC50 is the negative decadic logarithm of the IC50, by convention in mol/L. A high value points to a small IC50. Broadly, the inhibition is the share of the control response that was lost under treatment.

pEC50, pIC50: −log10 of the molar value. Where only a bound is given, the exact number is not on record here.

One assay deals with Cell line. The experiment in a line: Tested for cytotoxicities and mean graph midpoint (MGM) for growth inhibition of all 55 human cell lines. Format: functional.
The target in assay [1] is T1, Tubulin (Bos taurus, UniProt Q6B856+Q862F3). Put plainly: Effective concentration for enhancement of tubulin assembly rate was determined. Format: functional.
T1 sequence (Q6B856 whole entry): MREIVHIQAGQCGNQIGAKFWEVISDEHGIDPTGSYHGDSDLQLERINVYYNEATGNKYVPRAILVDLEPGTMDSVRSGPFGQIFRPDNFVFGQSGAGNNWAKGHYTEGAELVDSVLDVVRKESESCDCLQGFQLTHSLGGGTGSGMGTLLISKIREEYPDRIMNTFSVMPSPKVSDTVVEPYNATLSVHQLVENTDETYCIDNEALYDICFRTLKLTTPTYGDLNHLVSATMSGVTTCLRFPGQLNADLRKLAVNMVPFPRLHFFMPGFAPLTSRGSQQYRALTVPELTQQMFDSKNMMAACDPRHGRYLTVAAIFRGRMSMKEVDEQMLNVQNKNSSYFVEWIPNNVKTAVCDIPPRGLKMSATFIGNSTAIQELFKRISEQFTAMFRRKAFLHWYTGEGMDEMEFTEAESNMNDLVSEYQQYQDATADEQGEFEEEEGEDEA
T1 sequence (Q862F3 whole entry): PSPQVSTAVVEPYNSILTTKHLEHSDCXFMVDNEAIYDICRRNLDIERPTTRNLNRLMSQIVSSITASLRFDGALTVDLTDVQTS
The target of assay [2] is T1, Tubulin. Put plainly: Inhibition of polymerization of purified bovine tubulin. Format: functional.
The target in assay [3] is T2, Tubulin (Bos taurus) (UniProt Q6B856+Q862L2+Q862F3). Put plainly: Compound was evaluated for inhibition of colchicine binding to tubulin in experiment I. Format: protein assay. As to conditions: concentration not given here.
The target of assay [4] is T2, Tubulin (Bos taurus). The experiment in a line: Compound was evaluated for inhibition of colchicine binding to tubulin in experiment II. Format: protein assay. As to conditions: concentration not given here.

In the assay on Cell line, `CCOc1cc2c(cc1O)/C(=N\OC)C[C@@H]1[C@@H]2CC[C@]2(C)[C@@H](O)CC[C@@H]12` had an MGM of 0.27 µM.
In the case of `CCOc1cc2c(cc1O)[C@H](NC(C)=O)CC[C@H]1C3CC[C@H](O)[C@@]3(C)CC[C@H]21` (some centres undefined), at Tubulin [1], the negative-log EC50 (pEC50) is less than 3.70. The MGM in the assay on Cell line was 90.4 µM.
`CCOc1cc2c(cc1OC(C)=O)C(=O)CCC1C2CC[C@@]2(C)C1CC[C@@H]2OC(C)=O` (some centres undefined) yielded an MGM with Cell line greater than 100 µM. Also, the negative-log IC50 (pIC50) against Tubulin [2] is 5.26.
Compound `CCOc1cc2c(cc1O)C=CCC1C2CC[C@@]2(C)C1CC[C@@H]2O` (some centres undefined) showed an MGM in the assay with Cell line of 1.32 µM. At Tubulin [2], the pIC50 is 6.07.
In the case of `CCOc1cc2c(cc1O)CCCC1C2CC[C@@]2(C)C1CC[C@@H]2O` (some centres undefined), the MGM with Cell line is 2.48 µM. In addition, at Tubulin (Bos taurus) [3], the inhibition turned out to be 56%. Besides, on Tubulin [2], the negative logarithm of the IC50 (pIC50) is 6.01.
For the compound `CCOc1cc2c(cc1OC(C)=O)CC(=O)CC1C2CC[C@@]2(C)C1CC[C@@H]2OC(C)=O` (some centres undefined), at Tubulin [1], the pEC50 was less than 3.40.
On to `CCOc1cc2c(cc1O)/C(=N/O)CCC1C2CC[C@@]2(C)C1CC[C@@H]2O` (some centres undefined), for which the MGM with Cell line amounted to 51.3 µM. The same compound gave a pIC50 against Tubulin [2] of 4.24.
The compound `CCOc1cc2c(cc1O)C(=O)CCC1C2CC[C@@]2(C)C1CC[C@@H]2O` (some centres undefined) gave an MGM in the assay with Cell line of 14.4 µM. The compound also had a negative-log IC50 (pIC50) on Tubulin [2] of 3.89.
`CCOc1cc2c(cc1O)C(=O)C[C@@H]1[C@@H]2CC[C@]2(C)[C@@H](O)CC[C@@H]12`: the MGM in the assay with Cell line was found to be 0.13 µM. The inhibition at Tubulin (Bos taurus) [3] was found to be 19%. This compound also gave a negative-log IC50 (pIC50) at Tubulin [2] of 5.52.
Take `CCOc1cc2c(cc1O)[C@@H](NC(C)=O)CCC1C2CC[C@@]2(C)C1CC[C@@H]2O` (some centres undefined): the MGM with Cell line was 7 µM. At Tubulin [2], this compound showed a negative-log IC50 (pIC50) of 5.16.
On to `COc1cc2c(cc1O)CC[C@@H]1[C@@H]2CC[C@]2(C)[C@@H](O)CC[C@@H]12` [2-METHOXYESTRADIOL], for which the MGM in the assay with Cell line stood at 1.3 µM. Further, the inhibition at Tubulin (Bos taurus) [3] came out at 19%; on Tubulin (Bos taurus) [4], 60%. The same compound showed a pIC50 at Tubulin [2] of 5.85.
In the assay with Cell line, `CCOc1cc2c(cc1O)C/C(=N\NS(=O)(=O)c1ccc(C)cc1)CC1C2CC[C@@]2(C)C1CC[C@@H]2O` (some centres undefined) yielded an MGM of 15.5 µM. Moreover, on Tubulin [2], the negative-log IC50 (pIC50) is 4.10.
As to `CCOc1cc2c(cc1O)C(=O)CCC1C2CC[C@@]2(C)C1CC[C@@H]2OC(C)=O` (some centres undefined), on Tubulin [1], the negative-log EC50 (pEC50) is 5.09.
Regarding `CC(=O)O[C@H]1C(=O)[C@@]2(C)[C@H]([C@H](OC(=O)c3ccccc3)[C@]3(O)C[C@H](OC(=O)[C@H](O)[C@@H](NC(=O)c4ccccc4)c4ccccc4)C(C)=C1C3(C)C)[C@]1(OC(C)=O)CO[C@@H]1C[C@@H]2O` [PACLITAXEL], the pEC50 on Tubulin [1] was 6.08.
Turning to `CCOc1cc2c(cc1O)CC[C@@H]1[C@@H]2CC[C@]2(C)[C@@H](O)CC[C@@H]12`, the MGM in the assay with Cell line was determined as 0.076 µM. Further, the inhibition on Tubulin (Bos taurus) [3] came to 51%; on Tubulin (Bos taurus) [4] it was 87%. In addition, the pIC50 against Tubulin [2] was 6.18.
In the assay with Cell line, `CCOc1cc2c(cc1O)/C(=N/OC)CCC1C2CC[C@@]2(C)C1CC[C@@H]2O` (some centres undefined) showed an MGM of 24 µM. The compound further showed a negative logarithm of the IC50 (pIC50) on Tubulin [2] of 4.52.
Regarding `CCOc1cc2c(cc1OC(C)=O)/C(=N/OC)CCC1C2CC[C@@]2(C)C1CC[C@@H]2OC(C)=O` (some centres undefined), the pEC50 at Tubulin [1] is less than 3.70.
In the assay on Cell line, `CCOc1cc2c(cc1O)/C(=N\O)C[C@@H]1[C@@H]2CC[C@]2(C)[C@@H](O)CC[C@@H]12` gave an MGM of 0.079 µM.
For the compound `CCOc1cc2c(cc1OC(C)=O)CCCC1C2CC[C@@]2(C)C1CC[C@@H]2OC(C)=O` (some centres undefined), the MGM in the assay on Cell line was found to be 14.5 µM. In addition, the negative logarithm of the IC50 (pIC50) against Tubulin [2] is less than 3.40.
Consider `CCOc1cc2c(cc1OC(C)=O)C(=O)C[C@@H]1[C@@H]2CC[C@]2(C)[C@@H](OC(C)=O)CC[C@@H]12`, for which the pEC50 at Tubulin [1] is less than 3.40.
Compound `CCOc1cc2c(cc1O)C/C(=N\O)CC1C2CC[C@@]2(C)C1CC[C@@H]2O` (some centres undefined) gave an MGM in the assay on Cell line of 42.7 µM. The compound further gave a pIC50 on Tubulin [2] of 4.00.
Take `CCOc1cc2c(cc1OC(C)=O)C(=O)CCC1C2CC[C@@]2(C)C1CC[C@@H]2O` (some centres undefined): the negative-log EC50 (pEC50) at Tubulin [1] is 3.44.
`CCOc1cc2c(cc1O)CC(=O)CC1C2CC[C@@]2(C)C1CC[C@@H]2O` (some centres undefined) registered an MGM with Cell line of 11.5 µM. Further, the negative logarithm of the IC50 (pIC50) at Tubulin [2] was 5.09.
